Test results as given in PubChem BioAssay AID330 (DTP/NCI, 2004).
“And” between values parts separate entries of the source, which are not always exact repeats. Equal values may be shown once. Toxic doses and inconclusive results are not listed. How the source made its calls: active means survival T/C of 150% or more; inactive means T/C below 125% in these data.

System: P388 leukemia ip, CD2F1 mice, survival T/C
Experiment: NCI In Vivo Anticancer Drug Screen. Data for tumor model P388 Leukemia (intraperitoneal) in CD2F1 (CDF1) mice
Conditions: endpoint: median survival time, higher = longer survival
Method in brief: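 Mice carrying the transplanted tumor received test compound or vehicle. Survival was recorded in each group, and the value is the treated-group measurement divided by that of the vehicle-treated control group.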

[1] = dose: 12.5 mg/kg/injection, schedule: Q01DX009 (ip), vehicle: saline with Tween-80
[2] = dose: 25.0 mg/kg/injection, schedule: Q01DX009 (ip), vehicle: saline with Tween-80
[3] = dose: 50.0 mg/kg/injection, schedule: Q01DX009 (ip), vehicle: saline with Tween-80
[4] = dose: 100.0 mg/kg/injection, schedule: Q01DX009 (ip), vehicle: saline with Tween-80
[5] = dose: 50.0 mg/kg/injection, schedule: Q01DX005 (ip), vehicle: saline with Tween-80
[6] = dose: 100.0 mg/kg/injection, schedule: Q01DX005 (ip), vehicle: saline with Tween-80
[7] = dose: 200.0 mg/kg/injection, schedule: Q01DX005 (ip), vehicle: saline with Tween-80
[8] = dose: 50.0 mg/kg/injection, schedule: Q01DX009 (ip), vehicle: Klucel (hydroxypropylcellulose) (HPC)
[9] = dose: 100.0 mg/kg/injection, schedule: Q01DX009 (ip), vehicle: Klucel (hydroxypropylcellulose) (HPC)
[10] = dose: 200.0 mg/kg/injection, schedule: Q01DX009 (ip), vehicle: Klucel (hydroxypropylcellulose) (HPC)

Measured: T/C

O=[N+]([O-])c1ccc(-c2sc(-c3ccccc3)nc2O)cc1
inactive: [1] 100 % of control | [2] 98 % of control | [3] 91 % of control and 94 % of control | dose: 200.0 mg/kg/injection, schedule: Q01DX009 (ip), vehicle: saline with Tween-80 88 % of control

O=C(O)c1ccccc1Nc1cccc(C(F)(F)F)c1
inactive: [1] 103 % of control | [2] 98 % of control | [3] 97 % of control | [4] 107 % of control

COC(=O)c1cc(O)c(O)c(O)c1
inactive: [5] 105 % of control | [6] 108 % of control | [7] 119 % of control

NNC1=NCCS1
inactive: dose: 0.31 mg/kg/injection, schedule: Q01DX009 (ip), vehicle: saline with Tween-80 101 % of control | dose: 0.62 mg/kg/injection, schedule: Q01DX009 (ip), vehicle: saline with Tween-80 98 % of control | dose: 1.25 mg/kg/injection, schedule: Q01DX009 (ip), vehicle: saline with Tween-80 104 % of control

CCOc1ccc(-n2c(O)c(N=Nc3ccccc3OC)sc2=S)cc1
inactive: dose: 50.0 mg/kg/injection, schedule: Q01DX005 (ip), vehicle: Klucel (hydroxypropylcellulose) (HPC) 97 % of control | dose: 100.0 mg/kg/injection, schedule: Q01DX005 (ip), vehicle: Klucel (hydroxypropylcellulose) (HPC) 93 % of control | dose: 200.0 mg/kg/injection, schedule: Q01DX005 (ip), vehicle: Klucel (hydroxypropylcellulose) (HPC) 95 % of control

CN(C)/N=C1\C(=O)Nc2ccc(Br)cc21
inactive: [8] 100 % of control | [9] 113 % of control | [10] 108 % of control

CCCCCCCCCCCCCCCCOc1ccc(/C=N/Nc2ccccc2)cc1OC
inactive: [3] 88 % of control | [4] 93 % of control

S=C([S][Sn]([c]1ccccc1)([c]1ccccc1)[c]1ccccc1)N1CCCCC1
inactive: dose: 3.12 mg/kg/injection, schedule: Q01DX009 (ip), vehicle: saline with Tween-80 99 % of control | dose: 6.25 mg/kg/injection, schedule: Q01DX009 (ip), vehicle: saline with Tween-80 104 % of control | [1] 107 % of control | [2] 112 % of control

C[C@H]1CCC/C=C/[C@@H]2C[C@H](O)C[C@H]2[C@H](O)/C=C/C(=O)O1
inactive: dose: 100.0 mg/kg/injection, schedule: Q04DX003 (ip), vehicle: Klucel (hydroxypropylcellulose) (HPC) 104 % of control | dose: 200.0 mg/kg/injection, schedule: Q04DX003 (ip), vehicle: Klucel (hydroxypropylcellulose) (HPC) 90 % of control

CC1=NC2=NC(CCCC(=O)N3CCCCC3)=NC3=CC=CC(=N1)N32
inactive: dose: 25.0 mg/kg/injection, schedule: Q01DX009 (ip), vehicle: saline 104 % of control | dose: 50.0 mg/kg/injection, schedule: Q01DX009 (ip), vehicle: saline 101 % of control | dose: 100.0 mg/kg/injection, schedule: Q01DX009 (ip), vehicle: saline 103 % of control

CN1CCC(OC(=O)c2ccco2)CC1
inactive: dose: 50.0 mg/kg/injection, schedule: Q04DX003 (ip), vehicle: saline 101 % of control | dose: 100.0 mg/kg/injection, schedule: Q04DX003 (ip), vehicle: saline 100 % of control | dose: 200.0 mg/kg/injection, schedule: Q04DX003 (ip), vehicle: saline 99 % of control

CC(C)CC(C)NC(=O)Nc1ccc(Cc2ccc(NC(=O)NC(C)CC(C)C)cc2)cc1 (stereo not drawn)
inactive: [8] 96 % of control | [9] 97 % of control | [10] 93 % of control

O=C(Nc1ccc(S(=O)(=O)Nc2nccs2)cc1)c1ccncc1
inactive: [5] 102 % of control | [6] 102 % of control | [7] 102 % of control

CC(=O)Nc1cc2ccccc2c(Br)n1
inactive: dose: 100.0 mg/kg/injection, schedule: Q01DX001 (ip), vehicle: saline with Tween-80 90 % of control | dose: 200.0 mg/kg/injection, schedule: Q01DX001 (ip), vehicle: saline with Tween-80 97 % of control | dose: 400.0 mg/kg/injection, schedule: Q01DX001 (ip), vehicle: saline with Tween-80 97 % of control
